According to a melting point compilation (Tetko et al.; mined from patent text by program, amines drawn as free bases though some values may be those of a salt):

Row | melting point | SMILES
1 | 217 to 219 °C | Cc1cc(C)cc(Nc2nccc(-c3nc4ccccc4s3)n2)c1
2 | 149 to 150 °C | Nc1ncnc2c1c(Cl)cn2COCCO
3 | 167 to 210 °C | COc1cc(CNC(=O)c2cc3c(=O)n(CC4CCCCC4)c(=O)n(C)c3s2)ccn1
4 | > 260 °C | CNC(=O)CCn1cnc2c(N)nc3ccccc3c21
5 | 204 to 206 °C | CC1CN(c2c(F)cc3c(=O)c(C(=O)O)cn4c3c2CC4C)CC(C)N1C (single isomer, unassigned; (+))
6 | 176 to 178 °C | CC(C)c1cc(-c2cc(C(=O)O)ccc2S(C)(=O)=O)on1
7 | 178 °C | COC(=O)c1cc(Nc2ccccc2)c(Nc2ccccc2)cc1C(=O)OC
8 | 182 to 183 °C | CCn1ncnc1COc1nn2c(-c3ccccc3F)nncc2c1-c1ccco1
9 | 144 to 145 °C | O=c1c2cccnc2c(-c2cccc(Cl)c2)nn1-c1ccccc1
10 | 170 °C | COc1cc2c(cc1Nc1ncc(Cl)c(Nc3ccccc3S(=O)(=O)C(C)C)n1)CCN(CC(=O)N1CCN(C)CC1)CC2
11 | 133 to 138 °C | CC(Cc1sc2ccc(Cl)cc2c1Cl)=NO
12 | 140 to 142 °C | O=C1N(Cc2ccc(Cl)s2)c2ccccc2C12COc1ccc(Br)cc12 (stereo not drawn)
13 | 72 to 73 °C | CCOC(=O)c1cc2cc(C(F)(F)F)cnc2n1Cc1ccccc1
14 | 230 to 233 °C | N#CC(C(=O)Nc1ccccc1)C(=O)c1nn(-c2ccccc2)c2c1CSc1ccc(NC(=O)CCC(=O)O)cc1-2 (stereo not drawn)
15 | 158 to 160 °C | COc1cc(Cc2nccc3c(OCc4ccccc4)cc(OCc4ccccc4)cc23)cc(OC)c1OC
16 | 174 to 176 °C | CS(=O)(=O)c1ccc(-c2ccc(I)n2-c2ccc(F)cc2)cc1
17 | 95 °C | COC(=O)c1ccc(-c2ccc(-c3ccccc3)c(OS(=O)(=O)C(F)(F)F)c2)cc1
18 | 107 to 109 °C | Nc1ncnc2c1ncn2C[C@@H]1O[C@H](CO)[C@@H](O)[C@@H]1O
19 | 200 to 212 °C | O=C(Nc1ccc(F)cc1)NN1CC=C(c2ccccc2)CC1
20 | 71 to 73 °C | CCOC(=S)c1c(CC)nc2ccccn12
21 | 214 °C | CN1CCC(=C2c3cc(CO)n(C)c3CCn3ccnc32)CC1
22 | 94 to 96 °C | CC(C)C(=O)OCCn1nc(-c2cc(C(C)(C)C)c(O)c(C(C)(C)C)c2)c2cccnc21
23 | 75 to 83 °C | CN(CCC(=O)O)c1ccccc1CNC(=O)C1Cc2ccccc2N1S(=O)(=O)c1ccc(-c2ccc(F)cc2Cl)cc1 (stereo not drawn)

Row | melting point | SMILES
24 | 180 to 182 °C | NCc1c(Cc2ccccc2)nc2ccc(OCC(N)=O)cc2c1-c1ccccc1
25 | 253 to 254 °C | O=c1[nH]c2ccccc2c2ccnn12
26 | 141 to 144 °C | CCOC(=O)c1cc(NC(=O)C(CSC(C)=O)Cc2ccc(Cl)cc2)c[nH]1 (stereo not drawn)
27 | 145 °C | CC1(C)Cc2cccc(OCCNCc3cccc(C4=C(F)CCC4)c3)c2O1
28 | 160 to 162 °C | CN(C(=O)c1ccc2nonc2c1)C1CCOCC1
29 | 124 to 126 °C | Cc1ccccc1C(C)Oc1cc(OCc2ccsc2)ccc1C(=O)CC(=O)C(=O)O (racemic)
30 | 65 to 66 °C | COC(=O)CC(c1ccc(OC)cc1)N1C(=O)c2ccccc2C1=O (stereo not drawn)
31 | 167 to 169 °C | CC(=O)Oc1ccccc1C(=O)Nc1nc(S(C)=O)cs1 (stereo not drawn)
32 | 183 to 187 °C | O=C(O)Cc1c(C(=O)O)c2cc(Oc3ccc(Cl)cc3)ccc2n1-c1ccc(N2CCCCC2)cc1
33 | 170 to 171 °C | CCCCc1ncc(/C=C(\Cc2cccs2)C(=O)O)n1Cc1cccc(OC)c1
34 | 216 to 218 °C | NS(=O)(=O)c1cc2cnccc2o1
35 | 125 to 126 °C | C=CCn1c(C)c(C)c2cnnc(OCc3ccc(F)cc3)c21
36 | 77 to 78 °C | CCOC(=O)C(Oc1cccc2c1ccn2C(=O)OCc1ccccc1)C(=O)OCC
37 | 180 °C | COc1ccc(Br)c(C(=O)N2CCN(S(=O)(=O)c3ccccc3)CC2)c1
38 | 162 to 165 °C | Cc1cc(I)cc(C)c1Oc1ccc([N+](=O)[O-])c(Nc2ccc(C#N)cc2)n1
39 | 185 to 186 °C | CS(=O)(=O)c1ccc(-c2cnn(Cc3ncc(Cl)s3)c(=O)c2-c2ccc(F)cc2)cc1
40 | 190 °C | Fc1ccc(-c2cc(C(F)(F)F)n3ncc(-c4cccnc4)c3n2)cc1Cl
41 | 228 to 230 °C | CC(C)n1c(C=O)c(-c2ccc(F)cc2)c(-c2ccc(F)cc2)c1C(=O)O
42 | 149 to 151 °C | CCNC(=O)CN(C)C(=O)[C@H](C)NC(=O)CC
43 | 58 to 59 °C | COc1ccc2nc(OC)cc(C)c2c1
44 | 144 to 146 °C | COc1cc(C(=O)CCc2ccccc2)c2c(c1OC)C(=O)CC2
45 | 147 to 148 °C | Cc1ccc(N(c2ccccc2)c2ccc3c4c(cccc24)CC3)cc1
46 | 210 to 215 °C | CC(C)OC(=O)Nc1ccc(-c2ccnc3c(C(=O)c4cccs4)cnn23)s1

Row | melting point | SMILES
47 | 144 °C | CCOC(=O)CC1C(=O)N(CCc2c[nH]c3ccccc23)CCN1C(=O)c1ccccc1 (stereo not drawn)
48 | 128 to 130 °C | N#Cc1ccc(-c2ccc(Cl)cc2)cc1
49 | 232 to 233 °C | O=C1CCC(=NNc2ccc(F)cc2)c2ncccc2N1
50 | > 250 °C | O=c1[nH]c2cc3ccccc3cc2[nH]c1=O
51 | 270 °C | CC(C)COc1cc(-c2ccc(N)c(OCC(C)C)c2)ccc1N
52 | 85 to 87 °C | O=C1C=C(OCCCCCCI)c2ccccc2C1=O
53 | 258 to 260 °C | COc1ccc2c(ccc3c4cc5c(cc4nnc23)OCO5)c1
54 | 136 to 139 °C | Cc1nc(NC(=O)CC2CC2)sc1C(=O)NCc1ccccc1
55 | 236 to 240 °C | CCOC(=O)c1cn2c3c(c(F)c(F)c(F)c3c1=O)CCN2C
56 | 111 to 115 °C | CCOC(=O)Cc1nn(Cc2nc(-c3ccccc3C(F)(F)F)no2)c(=O)c2ccccc12
57 | 155 to 160 °C | CNC(=O)Nc1ccc(OCCNCC(O)c2ccc(O)cc2)cc1 (stereo not drawn)
58 | 139 to 142 °C | CCCCc1oc2ccccc2c1C(=O)NCc1ccc2c(-c3ccc(OC)cc3)c(OCC#N)ccc2c1
59 | 195 to 197 °C | COc1ccc(C(=O)Nc2ccccc2)cc1NCc1ccc(C(C)(C)C)cc1
60 | 101 to 102 °C | Cc1cc(O)c(S(=O)(=O)CCC(C)C)c(=O)o1
61 | 303 to 305 °C | Sc1nc2cc3ccccc3cc2[nH]1
62 | 65 to 66 °C | CCc1nnc(CCc2ccc([N+](=O)[O-])cc2)o1
63 | 73.5 °C | CCCCc1nc(-c2nc(C)nc(C)n2)ccc1C
64 | 104 to 106 °C | COC(=O)C(O)C(=O)C(C)Oc1ccc(Oc2nc3ccc(Cl)cc3s2)cc1 (stereo not drawn)
65 | 215 °C | COc1ccc(S(=O)(=O)C2(C(=O)O)CCN(Cc3ccc(Br)cc3)CC2)cc1
66 | 204 to 207 °C | COc1cn(-c2ccc(N3CC=CC3)cc2F)nc(-c2ccnn2-c2ccccc2)c1=O
67 | < 60 °C | CC(=O)n1nc(C)c(Oc2cc(Cl)cc(C#N)c2)c1C
68 | 192 °C | O=C(O)C1CCCc2sc(=O)[nH]c21 (stereo not drawn)
69 | 90 to 92 °C | CCCCc1nc2c(N)nc(C)c(C)c2n1CC(C)(C)NS(C)(=O)=O

Row | melting point | SMILES
70 | 114 to 116 °C | COCc1cnn2c(-c3cccc(C(F)(F)F)c3)ccnc12
71 | 204 °C | O=C(CN1CCC(Cc2ccc(F)cc2)CC1)Nc1ccc2[nH]cnc2c1
72 | 120 to 123 °C | NS(=O)(=O)c1ccc(-c2cnn(Cc3ccccc3)c(=O)c2Cc2ccc(F)cc2)cc1
73 | 265 °C | Cc1cc(=O)[nH]c(NC(=N)Nc2ccccc2)n1
74 | 167 to 176 °C | CCN1C(=O)C(NC(=O)C(F)(F)F)CCc2c1ccc(Nc1ncc(Cl)c(N[C@H]3[C@@H](C(N)=O)[C@@H]4C=C[C@H]3C4)n1)c2OC (stereo partly drawn)
75 | 193 to 195 °C | COCC1c2ccccc2CCN1c1nc(Nc2ccc(F)cc2)nc(C)c1C (stereo not drawn)
76 | 200 to 202 °C | Oc1ccc2cc(-c3cnc(Cc4ccccc4)o3)ccc2c1
77 | 140 to 150 °C | CCCCc1nc(SC)c(C(C)(O)C(=O)O)n1Cc1ccc(-c2ccccc2S(=O)(=O)NC(=O)OCc2ccccc2)cc1 (stereo not drawn)
78 | 196 °C | Cc1c(-c2ccc(NC(=O)OCC(C)C)cc2)nc2n1CCc1ccccc1C2OC1CCN(C)CC1 (stereo not drawn)
79 | 230 to 233 °C | Nc1c(-c2cc(Cl)ccc2O)c2c(C(F)(F)F)cc(C(F)(F)F)cc2[nH]c1=O
80 | 163 to 166 °C | Cc1cc(N(C)C(=O)OC(C)(C)C)c(C)c(C)c1O
81 | 167 °C | CCOC(=O)C1=C(C)N2CCCC2=C(C(C)=O)C1c1ccccc1C#N (stereo not drawn)
82 | 99 to 101 °C | CC(=O)Oc1cc(-n2c(=O)cc(C(F)(F)F)n(C)c2=O)c(F)cc1Cl
83 | 197 to 199 °C | CCOC(=O)c1sc(N2CCNC2=O)nc1C
84 | 189 to 191 °C | CCOCc1nc2c(N)nc3ccccc3c2n1CC(C)(O)CC (stereo not drawn)
85 | 31 to 33 °C | COCCOc1ccc([N+](=O)[O-])cc1[N+](=O)[O-]
86 | 137 to 145 °C | C=CC[C@H](C(N)=O)[C@@H](CC(C)C)C(=O)NC1C(=O)N(C)c2ccccc2-c2ccccc21 (stereo partly drawn)
87 | 112 °C | CCOC(=O)C1=C(C(=O)OCC)C(c2cccc3ccccc23)C(C(=O)OCC)=C(C)N1 (stereo not drawn)
88 | 142 to 143 °C | O=C(O)CCc1ocnc1-c1ccccc1
89 | 235 to 237 °C | COc1cccc(OC)c1C(=O)Nc1nnc(-c2ccccc2Cl)s1
90 | 157 to 159 °C | CC(=O)N1CCC(CCC(=O)c2cc3c4c(c2)CCN4C(=O)CC3)CC1
91 | 97 °C | OCCCN1CCC(c2ccccc2)(c2ccccc2)CC1

Row | SMILES | melting point
92 | ClCc1nnc2n1-c1ccc(Cl)cc1C(c1ccccc1Cl)=NC2 | 195 to 198 °C
93 | NC(=O)c1ncn2c1[C@@H]1CCN1C(=O)c1cc(Cl)ccc1-2 | 251 to 253 °C
94 | CCN(CC)C(=O)Cc1c(-c2ccc(C)cc2)nc2c(C)cc(C)nn12 | 155 to 158 °C
95 | N#Cc1ccc(CBr)c(C#N)c1 | 106 °C
96 | CC12CC(O)CCC1CCC1C2CCC2(C)C(O)C(N3CCCCC3)CC12 (stereo not drawn) | 215 to 219 °C
97 | Cc1ncc2n1-c1ccc(Cl)cc1C(c1ccccc1)=[N+]([O-])C2 | 260 to 261 °C
98 | CCCN(CCC)C1Cc2cccc3nc(N)n(c23)C1 (stereo not drawn) | 160 to 170 °C
